The compounds below were run against SHP2 (Homo sapiens (Human), UniProt Q06124) (assay: SHP2 allosteric inhibition assay (DiFMUP prompt fluorescence)). Conditions: not given.
Type: biochemical
Experimental: SHP2 is allosterically activated through binding of bis-tyrosyl-phorphorylated peptides to its Src Homology 2 (SH2) domains. The latter activation step leads to the release of the auto-inhibitory interface of SHP2, which in turn renders the SHP2 protein tyrosine phosphatase (PTP) active and available for substrate recognition and reaction catalysis. The catalytic activity of SHP2 was monitored using the surrogate substrate DiFMUP in a prompt fluorescence assay format.
After 30-60 minutes incubation at 25° C., the surrogate substrate DiFMUP (Invitrogen, cat#D6567) was added to the reaction and incubated at 25° C. for 30 minutes. […] The fluorescence signal was monitored using a microplate reader (Envision, Perki-Elmer) using excitation and emission wavelengths of 340 nm and 450 nm, respectively. The inhibitor dose response curves were analyzed using normalized IC50 regression curve fitting with control based normalization.

| IC50 [nM] | Compound |
| --- | --- |
| 29 | CC1(N)CCN(c2cnc(Sc3cccc(Cl)c3Cl)c(N)n2)CC1 [Example 1, 6-(4-amino-4-methylpiperidin-1-yl)-3-((2,3-dichlorophenyl)thio)pyrazin-2-amine] |

Same assay, conditions: 0.5 nM SHP2 activated with 0.5 μM peptide IRS1_pY1172(dPEG8)pY1222; substrate DiFMUP; 25° C.; read-out: IC50

| Compound | IC50 [nM] |
| --- | --- |
| CC1(N)CCN(c2cnc(Sc3ccccc3Cl)c(N)n2)CC1 [Example 2] | 70 |
| CC1(N)CCN(c2cnc(Sc3ccccc3C(F)(F)F)c(N)n2)CC1 [Example 4, 6-(4-amino-4-methylpiperidin-1-yl)-3-((2-(trifluoromethyl)phenyl)thio)pyrazin-2-amine] | 59 |
| CC1(N)CCN(c2cnc(Sc3cc(Cl)ccc3Cl)c(N)n2)CC1 [Example 5] | 1080 |
| CC1(N)CCN(c2cnc(Sc3ccc(Cl)cc3Cl)c(N)n2)CC1 [Example 6] | 210 |
| CC1(N)CCN(c2cnc(Sc3cc(O)ccc3Cl)c(N)n2)CC1 [Example 9, 3-((3-amino-5-(4-amino-4-methylpiperidin-1-yl)pyrazin-2-yl)thio)-4-chlorophenol] | 307 |
| CC1(N)CCN(c2nnc(Sc3cccc(Cl)c3Cl)c(N)n2)CC1 [Example 14, 3-(4-amino-4-methylpiperidin-1-yl)-6-((2,3-dichlorophenyl)thio)-1,2,4-triazin-5-amine] | 143 |
| CC1(CN)CCN(c2cnc(Sc3cccc(N)c3Cl)c(N)n2)CC1 [Example 20] | 22 |
| CC1(N)CCN(c2cnc(Sc3cccc(N)c3C(F)(F)F)c(N)n2)CC1 [Example 21] | 46 |
| CC1(N)CCN(c2cnc(Sc3ccc(F)cc3C(F)(F)F)c(N)n2)CC1 [Example 26] | 67 |
| NCC1(c2cccnc2)CCN(c2cnc(Sc3cccc(Cl)c3Cl)c(N)n2)CC1 [Example 28, 6-(4-(aminomethyl)-4-(pyridin-3-yl)piperidin-1-yl)-3-((2,3-dichlorophenyl)thio)pyrazin-2-amine] | 54 |
| CC1(N)CCN(c2cnc(Sc3cccnc3C(F)(F)F)c(N)n2)CC1 [Example 30] | 66 |
| CC1(CN)CCN(c2nc(N)c(Sc3cccc(Cl)c3Cl)nc2C(N)=O)CC1 [Example 33, 5-amino-3-(4-(aminomethyl)-4-methylpiperidin-1-yl)-6-((2,3-dichlorophenyl)thio)pyrazine-2-carboxamide] | 19 |
| CC1(N)CCN(c2cnc(Sc3ccncc3Cl)c(N)n2)CC1 [Example 36, 6-(4-amino-4-methylpiperidin-1-yl)-3-((3-chloropyridin-4-yl)thio)pyrazin-2-amine] | 76 |
| CC1(N)CCN(c2cnc(Sc3ccc(-c4nn[nH]n4)cc3Cl)c(N)n2)CC1 [Example 38, 6-(4-amino-4-methylpiperidin-1-yl)-3-((2-chloro-4-(2H-tetrazol-5-yl)phenyl)thio)pyrazin-2-amine] | 23 |
| NCC1(c2cscn2)CCN(c2cnc(Sc3cccnc3C(F)(F)F)c(N)n2)CC1 [Example 40, 6-(4-(aminomethyl)-4-(thiazol-4-yl)piperidin-1-yl)-3-((2-(trifluoromethyl)pyridin-3-yl)thio)pyrazin-2-amine] | 79 |
| CC1(CN)CCN(c2cnc(Sc3ccnc(Cl)c3Cl)c(N)n2)CC1 [Example 43, 6-(4-(aminomethyl)-4-methylpiperidin-1-yl)-3-((2,3-dichloropyridin-4-yl)thio)pyrazin-2-amine] | 14 |
| NCC1(F)CCN(c2cnc(Sc3cccc(N)c3Cl)c(N)n2)CC1 [Example 44, 3-((3-amino-2-chlorophenyl)thio)-6-(4-(aminomethyl)-4-fluoropiperidin-1-yl)pyrazin-2-amine] | 271 |
| CC1(CN)CCN(c2cnc(Sc3ccncc3F)c(N)n2)CC1 [Example 48] | 177 |
| CC1(CN)CCN(c2cnc(Sc3ccnc(Cl)c3Cl)c(N)n2)CC1 [Example 49] | 100 |
| Nc1nc(N2CCC(N)(CO)CC2)cnc1Sc1ccnc(Cl)c1Cl [Example 52, (4-amino-1-(6-amino-5-((2,3-dichloropyridin-4-yl)thio)pyrazin-2-yl)piperidin-4-yl)methanol] | 62 |

Further lines, results first:

| IC50 [nM] | Compound |
| --- | --- |
| 13700 | COc1ccc(Cl)c(Sc2ncc(N3CCC(C)(N)CC3)nc2N)c1 [Example 7] |
| 64400 | CC1(N)CCN(c2cnc(Oc3cccc(Cl)c3Cl)c(N)n2)CC1 [Example 8] |
| 56 | COc1cccc(Sc2ncc(N3CCC(C)(N)CC3)nc2N)c1Cl [Example 10, 6-(4-amino-4-methylpiperidin-1-yl)-3-((2-chloro-3-methoxyphenyl)thio)pyrazin-2-amine] |
| 257 | CC1(N)CCN(c2cnc(Sc3cccc(NC(=O)c4ccc5ccccc5c4)c3Cl)c(N)n2)CC1 [Example 13] |
| 266 | CC1(N)CCN(c2nnc(Sc3ccccc3Cl)c(N)n2)CC1 [Example 15] |
| 44 | CC1(N)CCN(c2cnc(Sc3ccc(Br)cc3Cl)c(N)n2)CC1 [Example 22] |
| 51 | CC1(N)CCN(c2cnc(Sc3ccc(F)cc3Cl)c(N)n2)CC1 [Example 23] |
| 49 | C[C@@]1(N)CCN(c2cnc(Sc3cccc(Cl)c3Cl)c(N)n2)C[C@H]1O [Example 24] |
| 195 | Nc1cccc(Sc2ncc(N3CCC(N)(CO)CC3)nc2N)c1Cl [Example 32] |
| 109 | CC1(CN)CCN(c2nc(N)c(Sc3cccnc3C(F)(F)F)nc2C(N)=O)CC1 [Example 35] |
| 82 | CC1(N)CCN(c2cnc(Sc3ccnc(C(F)(F)F)c3Cl)c(N)n2)CC1 [Example 37] |
| 26 | CC1(CN)CCN(c2cnc(Sc3cccnc3Cl)c(N)n2)CC1 [Example 39, 6-(4-(aminomethyl)-4-methylpiperidin-1-yl)-3-((2-chloropyridin-3-yl)thio)pyrazin-2-amine] |
| 23 | CC1(CN)CCN(c2cnc(Sc3ccnc(N)c3Cl)c(N)n2)CC1 [Example 42, 3-((2-amino-3-chloropyridin-4-yl)thio)-6-(4-(aminomethyl)-4-methylpiperidin-1-yl)pyrazin-2-amine] |
| 351 | CC1(CN)CCN(c2cnc(Sc3cccnc3C(F)(F)F)c(N)c2)CC1 [Example 45] |
| 459 | NCC1CCCN(c2cnc(Sc3cccnc3C(F)(F)F)c(N)n2)C1 (stereo not drawn) [Example 46] |
| 382 | NCC1(O)CCN(c2cnc(Sc3cccc(N)c3Cl)c(N)n2)CC1 [Example 47] |
| 59 | CCC1(CN)CCN(c2cnc(Sc3ccnc(N)c3Cl)c(N)n2)CC1 [Example 50] |
| 17 | CCCC1(CN)CCN(c2cnc(Sc3ccnc(N)c3Cl)c(N)n2)CC1 [Example 51] |
| 315 | Nc1nc(N2CCC(N)(CO)CC2)cnc1Sc1ccnc(N)c1Cl [Example 53] |
| 170 | Nc1nc(N2CCC(N)(CO)CC2)cnc1Sc1cccnc1C(F)(F)F [Example 54] |
| 17.7 | CC1(CN)CCN(c2cnc(Sc3cc(N)nc(Cl)c3Cl)c(N)n2)CC1 [Example 55] |
